Data: PMC7011943, “Discovery of novel PDE9A inhibitors with antioxidant activities for treatment of Alzheimer’s disease” (Journal of Enzyme Inhibition and Medicinal Chemistry, 2017)
Entries after “also recorded” stand apart in the source; their conditions may differ. Read-outs that look alike come from different tables or passages of the source.

Legend:
[1] = target: T1, PDE9A (Homo sapiens, UniProt O76083); assay: Enzymatic assay against PDE9A (3H-cGMP substrate); format: biochemical
T1 construct: pET-PDE9A2 plasmid (catalytic domain, 181–506); made in house; host or cells: E. coli BL21 (Codonplus)
T1 sequence (O76083 241-566): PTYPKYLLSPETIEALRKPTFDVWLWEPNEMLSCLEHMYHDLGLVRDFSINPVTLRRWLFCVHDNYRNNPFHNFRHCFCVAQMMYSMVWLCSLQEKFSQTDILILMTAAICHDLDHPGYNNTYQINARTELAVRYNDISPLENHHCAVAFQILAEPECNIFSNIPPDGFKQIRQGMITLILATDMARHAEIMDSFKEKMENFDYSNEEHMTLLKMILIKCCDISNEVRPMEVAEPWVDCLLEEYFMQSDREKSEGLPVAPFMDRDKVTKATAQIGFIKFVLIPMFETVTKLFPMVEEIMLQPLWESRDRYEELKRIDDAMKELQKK
Procedure: The E. coli cells carrying pET-PDE9A2 was grown in LB medium (containing 100 μg/ml ampicillin and 0.4% glucose) at 37 °C until OD600 = 0.6–0.8. 0.1 mM iso-propyl-β-D-thiogalactopyranoside was added to induce the PDE9A2 protein expression at 15 °C for 20 h. PDE9A was purified on the nickel nitriloacetic acid (Ni-NTA) column (Qiagen, Hilden, Germany) and eluted with 0.25 M imidazole. The concentration of PDE9A was estimated by the absorbance at 280 nm (calculated using ProtParam software, http://web.expasy.org/protparam). A typical batch of purification yielded 30–60 mg PDE9A2 protein from a 0.5 l cell culture. The PDE9A2 proteins had purity greater than 90% as shown by sodium dodecyl sulphate polyacrylamide gel electrophoresis (SDS-PAGE).
The enzymatic activities of the catalytic domain of PDE9A2 were measured by using ^3H-cGMP as the substrate and the assay buffer of 50 mM Tris-HCl (pH 8.0), 10 mM MgCl2, and 1 mM DTT. Each assay used ^3H-cGMP 20,000–30,000 cpm. The reaction was carried out at room temperature (25 °C) for 15 min and then terminated by addition of 0.2 M ZnSO4. The reaction product was precipitated by 0.2 N Ba(OH)2, whereas unreacted ^3H-cGMP remained in the supernatant. […] At least eight concentrations of inhibitors were measured parallel in each measurement, resulting an inhibition curve to calculate the IC50 value of inhibitors by nonlinear regression. Each measurement was repeated at least three times. The mean and standard deviation statistics of these three IC50 values were used as the final IC50 value and the corresponding SD.

[2] = Antioxidant activity, oxygen radical absorbance capacity fluorescein (ORAC-FL) method; details: for ORAC: samples 1–10 μM
Procedure: The antioxidant activity was determined by the modified oxygen radical absorbance capacity fluorescein (ORAC-FL) method[31]^,[32]. All the assays were diluted with 75 mM phosphate buffer (pH 7.4). The final reaction mixture was 200 μl. Test compound (20 μl) and fluorescein (120 μl, 150 nM final concentration) were placed in the wells of a black 96-well plate. After the mixture was incubated at 37 °C for 15 min, AAPH solution (60 μl, 12 mM final concentration) was added. The plate was placed in a Spectrafluor Plus plate reader (Tecan, Crailsheim, Germany) and the fluorescence was recorded every minute for 4 h with excitation at 485 nm and emission at 535 nm. Trolox was used as standard (1–8 μM, final concentration). A blank (FL + AAPH) in phosphate buffer instead of test compounds and trolox calibration were performed in each assay. The samples were measured at different concentration (1–10 μM). All the reaction mixture was prepared fourfold and at least three independent assays were performed for each sample. Fluorescence in time course was normalised on basis of the blank (without antioxidants). The ORAC-FL values were calculated as the reported method. ORAC-FL values were expressed as trolox equivalents.

[3] = system: PDE1B; details: printed under head 'Inhibition of PDE1B at 1000 nM'; cited from earlier work
[4] = target: T2, PDE1B (Homo sapiens, UniProt Q01064); assay: Enzymatic assay against PDE1B (3H-cGMP substrate); format: biochemical; details: 1000 nM (1 μM)
T2 construct: The catalytic domains of PDE1B (10–516) and PDE8A (480–820); made in house
T2 sequence (Q01064 10-516): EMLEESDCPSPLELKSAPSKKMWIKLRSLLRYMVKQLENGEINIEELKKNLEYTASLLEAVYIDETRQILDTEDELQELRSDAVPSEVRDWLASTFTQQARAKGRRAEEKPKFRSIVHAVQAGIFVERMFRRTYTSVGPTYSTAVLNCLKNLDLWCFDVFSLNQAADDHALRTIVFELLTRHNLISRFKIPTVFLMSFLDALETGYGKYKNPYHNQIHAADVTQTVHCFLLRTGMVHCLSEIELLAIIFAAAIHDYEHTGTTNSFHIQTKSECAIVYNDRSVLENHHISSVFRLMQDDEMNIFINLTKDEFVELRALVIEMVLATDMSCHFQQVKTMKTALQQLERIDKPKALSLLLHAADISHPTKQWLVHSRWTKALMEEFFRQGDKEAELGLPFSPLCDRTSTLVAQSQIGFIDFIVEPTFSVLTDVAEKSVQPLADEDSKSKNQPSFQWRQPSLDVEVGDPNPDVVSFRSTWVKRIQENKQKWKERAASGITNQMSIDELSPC
Procedure: (§2) The enzymatic activities of PDE1B and PDE8A were assayed by using ^3H-cGMP and ^3H-cAMP as the substrates, respectively, following the same procedure for PDE9A.

[5] = target: T3, PDE8A (Homo sapiens, UniProt O60658); assay: Enzymatic assay against PDE8A (3H-cAMP substrate); format: biochemical
T3 construct: The catalytic domains of PDE1B (10–516) and PDE8A (480–820); made in house
T3 sequence (O60658 480-820): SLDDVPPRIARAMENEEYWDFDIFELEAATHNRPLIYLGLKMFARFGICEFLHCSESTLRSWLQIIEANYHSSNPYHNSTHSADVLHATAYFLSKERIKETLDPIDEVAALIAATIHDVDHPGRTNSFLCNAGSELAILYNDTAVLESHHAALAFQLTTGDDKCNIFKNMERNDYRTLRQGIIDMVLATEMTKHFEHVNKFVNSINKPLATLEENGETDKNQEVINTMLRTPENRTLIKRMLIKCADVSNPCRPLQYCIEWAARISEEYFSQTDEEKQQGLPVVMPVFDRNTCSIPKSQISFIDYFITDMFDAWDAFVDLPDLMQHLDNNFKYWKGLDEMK
Procedure: as §2

[6] = system: SH-SY5Y cells; assay: In vitro cell viability assay (MTT); format: cell-based, human; details: for cytotoxicity to SH-SY5Y cells (in words): 48 h, up to 100 μM
Procedure: (§1) SH-SY5Y cells were used for the cytotoxicity test by the MTT (3–(4, 5-dimethyl-2-thiazolyl)-2,5-diphenyl-2-H-tetrazoliumbromide) method. After incubation of the SH-SY5Y cells (5 × 10^3) in a 96-well plate for 24 h, compounds at concentrations of 10, 20, 40, 60, 80, and 100 μM, were added. After incubation for 48 h, MTT solution was added to each cell well and the system was further inoculated for 4 h at 37 °C. The purple formazan dye and 120 μl DMSO were added to the cells and the absorbance was measured at 570 nm using EnSpire-2300 Multimode Reader (PerkinElmer, Waltham, MA).

[7] = system: PDE1B; assay: Enzymatic assay against PDE1B (3H-cGMP substrate); format: biochemical; details: estimated from inhibition at 1 μM
Procedure: as §2

[8] = In vitro cell viability assay (MTT); format: cell-based, human; details: human, SH-SY5Y cells, 48 h incubation, read-out: cellular viability
Procedure: as §1

[9] = Table 1 and text, means of three independent determinations, read-out: IC50±SD

| IC50 [1, 9] | SMILES | ORAC-FL value / antioxidant activity (in words) [2] | ORAC [2] | further results |
| --- | --- | --- | --- | --- |
| 186 ± 7 nM | C[C@@H](NC(=O)/C=C/c1cccc(Cl)c1)c1nc2c(cnn2C2CCCC2)c(=O)[nH]1 [Compound 1j, (R, E)-N-3–(3-chlorophenyl)-N-(1–(1-cyclopentyl-4-oxo-4,5-dihydro-1H-pyrazolo[3,4-d]pyrimidin-6-yl)ethyl)acrylamide] | low ORAC-FL values | 0.08 trolox equivalents | – |
| 126 ± 15 nM | COc1cc(/C=C/C(=O)N[C@H](C)c2nc3c(cnn3C3CCCC3)c(=O)[nH]2)ccc1O [Compound 1a, (R, E)-N-(1–(1-cyclopentyl-4-oxo-4,5-dihydro-1H-pyrazolo[3,4-d]pyrimidin-6-yl)ethyl)-3–(4-hydroxy-3-methoxyphenyl)acrylamide] | – | 2.4 trolox equivalents | – |
| 65 ± 4 nM | COc1ccc(/C=C/C(=O)N[C@H](C)c2nc3c(cnn3C3CCCC3)c(=O)[nH]2)cc1OC [Compound 1c, (R, E)-N-(1–(1-cyclopentyl-4-oxo-4,5-dihydro-1H-pyrazolo[3,4-d]pyrimidin-6-yl)ethyl)-3– (3,4-dimethoxyphenyl)acrylamide] | low ORAC-FL values | 0.23 trolox equivalents | – |
| 83 ± 11 nM | COc1ccc(/C=C/C(=O)N[C@H](C)c2nc3c(cnn3C3CCCC3)c(=O)[nH]2)cc1O [Compound 1d, (R, E)-N-(1–(1-cyclopentyl-4-oxo-4,5-dihydro-1H-pyrazolo[3,4-d]pyrimidin-6-yl)ethyl)-3–(3-hydroxy-4-methoxyphenyl)acrylamide] | – | 1.26 trolox equivalents | – |
| – | C[C@@H]1CN(Cc2ncccn2)C[C@H]1c1nc2c(cnn2C2CCOCC2)c(=O)[nH]1 [PF-04447943, 6-[(3S,4S)-4-Methyl-1-(pyrimidin-2-ylmethyl)pyrrolidin-3-yl]-1-(tetrahydro-2H-pyran-4-yl)-1,5-dihydro-4H-pyrazolo[3,4-d]pyrimidin-4-one] | – | – | IC50 [3]: 1390 nM |
| 63 ± 3 nM | C[C@@H](NC(=O)/C=C/c1ccc(O)cc1)c1nc2c(cnn2C2CCCC2)c(=O)[nH]1 [Compound 1g, (R, E)-N-(1–(1-cyclopentyl-4-oxo-4,5-dihydro-1H-pyrazolo[3,4-d]pyrimidin-6-yl)ethyl)-3–(4-hydroxyphenyl)acrylamide] | – | 2.9 trolox equivalents | – |
| 133 ± 22 nM | C[C@@H](NC(=O)/C=C/c1ccc(N(C)C)cc1)c1nc2c(cnn2C2CCCC2)c(=O)[nH]1 [Compound 1i, (R, E)-N-(1–(1-cyclopentyl-4-oxo-4,5-dihydro-1H-pyrazolo[3,4-d]pyrimidin-6-yl)ethyl)-3–(4-(dimethylamino)phenyl)acrylamide] | – | 1.00 trolox equivalents | – |
| 190 ± 7 nM | COc1cccc(/C=C/C(=O)N[C@H](C)c2nc3c(cnn3C3CCCC3)c(=O)[nH]2)c1 [Compound 1f, (R, E)-N-(1–(1-cyclopentyl-4-oxo-4,5-dihydro-1H-pyrazolo[3,4-d]pyrimidin-6-yl)ethyl)-3–(3-methoxyphenyl)acrylamide] | low ORAC-FL values | 0.12 trolox equivalents | – |
| – | C[C@@H](NC(=O)CCCC[C@@H]1CCSS1)c1nc2c(cnn2C2CCCC2)c(=O)[nH]1 [Compound 2, N-((1N)-1–(1-cyclopentyl-4-oxo-3a, 4,5,6-tetrahydro-1H-pyrazolo[3,4-d]pyrimi–din-6-yl)ethyl)-5-((R)-1,2-dithiolan-3-yl)pentanamide] | low antioxidant activity | 0.28 trolox equivalents | inhibition at 1 µM [4]: 59%; inhibition at 10 µM [5]: 9%; cellular viability ([6]; 100 μM, 48 h incubation): no significant effect on cell viability; cytotoxicity to SH-SY5Y cells (in words) [6]: not toxic |
| > 500 nM | Cc1c(C)c2c(c(C)c1O)CCC(C)(C(=O)N[C@H](C)c1nc3c(cnn3C3CCCC3)c(=O)[nH]1)O2 (stereo partly drawn) [Compound 3, N-((R)-1–(1-cyclopentyl-4-oxo-4,5-dihydro-1H-pyrazolo[3,4-d]pyrimidin-6-yl)ethyl) -6-hydroxy-2,5,7,8-tetramethylchromane-2-carboxamide] | – | 0.24 trolox equivalents | – |
| 64 ± 2 nM | C[C@@H](NC(=O)/C=C/c1ccc(O)c(O)c1)c1nc2c(cnn2C2CCCC2)c(=O)[nH]1 [Compound 1b, (R, E)-N-(1–(1-cyclopentyl-4-oxo-4,5-dihydro-1H-pyrazolo[3,4-d]pyrimidin-6-yl)ethyl)-3–(3,4-dihydroxyphenyl)acrylamide] | – | 2.5 trolox equivalents | – |
| 57 ± 4 nM | C[C@@H](NC(=O)Cc1ccc(O)c(O)c1)c1nc2c(cnn2C2CCCC2)c(=O)[nH]1 [Compound 1l, (R, E)-N-(1–(1-cyclopentyl-4-oxo-4,5-dihydro-1H-pyrazolo[3,4-d]pyrimidin-6-yl)ethyl)-2–(3,4-dihydroxyphenyl)acetamide] | – | 2.6 trolox equivalents | – |
| – | COc1cc(/C=C/C(=O)O)ccc1O [Ferulic acid, reference compound] | – | 1.6 trolox equivalents | – |
| 130 ± 6 nM | C[C@@H](NC(=O)/C=C/c1ccc(C(F)(F)F)cc1)c1nc2c(cnn2C2CCCC2)c(=O)[nH]1 [Compound 1k, (R, E)-N-(1–(1-cyclopentyl-4-oxo-4,5-dihydro-1H-pyrazolo[3,4-d]pyrimidin-6-yl)ethyl)-3–(4-(trifluoromethyl)phenyl)acrylamide] | low ORAC-FL values | 0.02 trolox equivalents | – |

| SMILES | IC50 [1, 9] | ORAC-FL value / antioxidant activity (in words) [2] | ORAC [2] | further results |
| --- | --- | --- | --- | --- |
| C[C@@H](NC(=O)/C=C/c1cccc(O)c1)c1nc2c(cnn2C2CCCC2)c(=O)[nH]1 [Compound 1h, (R, E)-N-(1–(1-cyclopentyl-4-oxo-4,5-dihydro-1H-pyrazolo[3,4-d]pyrimidin-6-yl)ethyl)-3–(3-hydroxyphenyl)acrylamide] | 56 ± 7 nM | – | 3.3 trolox equivalents | IC50 ([1]; Table 2, read-out: IC50 (nM) of PDE9A): 56 ± 1 nM; inhibition at 1 µM [4]: 13%; fold of selectivity against PDE9 over PDE1B [7]: > 25 fold; inhibition at 10 µM [5]: 10%; fold of selectivity against PDE9 over PDE8A ([5]; estimated from inhibition at 10 μM): > 250 fold; viability at 48 h, 40 µM ([8]; 40 μM): ~90%; viability at 48 h, 100 µM ([8]; 100 μM): ~70%; cytotoxicity to SH-SY5Y cells (in words) [6]: no cytotoxicity; also recorded: not toxic |
